Experiment [1] deals with SV40 immortalized human corneal epithelial cell strains. Kind of experiment: Cell toxicity, viable cell number by β-hexosaminidase activity, corneal epithelial cells. The experiment is classed as cell-based. The conditions noted are these: concentration for survival rate of 50%. The procedure:
(§1) There were used SV40 immortalized human corneal epithelial cell strains (Araki-Sasaki et al., IOVS, 1995, 36:614-621) as the corneal cells and Chang human conjunctival cell strains (ATCC CCL-20.2) as the conjunctival cells.
(§2) These cells were cultured in 96-well plate to a confluent of 30 to 50% and then each test substance stepwise diluted with the culture medium was added to the foregoing culture medium to thus carry out cultivation at 37° C. After completion of the cultivation, the plate was washed with PBS(−) and the number of residual cells was determined in terms of the β-hexosaminidase activity.
(§3) A group treated with only the solvent, which was used for dissolving the test substance was defined to be a negative control, the viable cell number observed for the control was assumed to be 100%, a dose-correlation curve was prepared on the basis of the viable cell number observed at each concentration of test substance and the concentration of each test substance required for achieving the survival rate of 50% (EC50) was determined from the curve and it was defined to be the toxicity value thereof.

Another experiment concerns Japanese white rabbits. Kind of experiment: Inflammation in anterior of white rabbit after anterior chamber puncture (secondary aqueous humor PGE2 and protein). The conditions noted are these: for Inhibition Rate (PGE2 Content) / Inhibition Rate (Protein Content): anterior chamber puncture, vs control; for PGE2 Content / Protein Content: secondary aqueous humor after anterior chamber puncture. The class given is in vivo. The procedure: In this Test Example, there were used Japanese white rabbits (available from Japan Medical Animal Source Laboratory) each having a body weight ranging from 1.8 to 2.4 kg and they were divided into groups each consisting of 6 to 7 animals.
After administration of 250 U/kg of heparin (available from Takeda Chemical Industries, Ltd.) to these rabbits through the ear veins thereof, a test substance was dropped in the both eyes in an amount of about 60 μl. After 45 minutes from the dropping of the substance in the eyes, these animals were locally anesthetized with benoxil eye drop (available from Santen Pharmaceutical Co., Ltd.) and then whole of the anterior chamber fluid was collected using a 27G injection needle. This anterior chamber fluid was defined to be a primary aqueous humor. After 90 minutes from the collection of the aqueous humor, the rabbits were killed by anesthetization with an excess of pentobarbital sodium and the aqueous humor was again collected. This anterior chamber fluid was defined to be a secondary aqueous humor.
The concentration of prostaglandin E2 (hereunder referred to as “PGE2”) and the amount of proteins present in the collected secondary aqueous humor were determined and they were used as indications of inflammation. After pre-treatment of 100 μl of the aqueous humor using a Bond Elute C18 column, the concentration of PGE2 was determined using Biotrack PGE2 EIA system (available from Amersham Company). On the other hand, the amount of proteins was determined according to the Lowry method using bovine serum albumin (available from Nakarai Co., Ltd.) as a reference protein.
Etodolac as a test substance was dissolved in castor oil specified in the pharmacopoeia to concentrations of 0.5% and 5%. Meloxicam was diluted with physiological saline prior to use.

Experiment [2] relates to Chang human conjunctival cell strains (ATCC CCL-20.2). Kind of experiment: Cell toxicity, viable cell number by β-hexosaminidase activity, conjunctival cells. The experiment is classed as cell-based. To be noted: concentration for survival rate of 50%. The procedure:
as §1, §2, §3

The test system of experiment [3] is Japanese white male rabbits. Kind of experiment: Uveitis induced by LPS in rabbits (aqueous humor PGE2 and protein). To be noted: for Inhibition Rate (PGE2 Content) / Inhibition Rate (Protein Content): LPS uveitis, vs control. The experiment is classed as in vivo, rabbit. The method, then:
In this Test Example, groups of Japanese white male rabbits each having a body weight ranging from 1.7 to 2.4 kg were used, wherein each group consisted of 12 to 16 eyes.
The lipopolysaccharide (LPS) (055: B5 type, available from Sigma Company) derived from E. coli was administered to these rabbits through the auricular veins in a dose of 1.25 μg/kg to thus induce uveitis. After 4 hours from the administration of LPS, the rabbits were killed by anesthetization with an excess of pentobarbital sodium (available from Tokyo Chemical Industry Co., Ltd.) and the anterior chamber fluid was collected.
The PGE2 concentration and the amount of proteins present in the collected aqueous humor were determined according to the same methods used in Example 1.
In this respect, each test substance was dropped in the both eyes of these animals prior to one hour from the administration of LPS at a dose of about 60 μL/eye. […]

[4] abbreviates: 24 h, exposure 24 hours, Table 4.
Where [5] appears, read: aqueous humor 4 hours after LPS, 0.1% eye drop one hour before LPS.
Where [6] appears, read: aqueous humor 4 hours after LPS, 0.5% eye drop one hour before LPS.
Where [7] appears, read: aqueous humor 4 hours after LPS, 1.0% eye drop one hour before LPS.
Setting [8] is: 24 h, exposure time 24 hr, Table 5.
The mark [9] stands for this setting: 48 h, exposure time 48 hr, Table 5.

For orientation: EC50 means the concentration giving half of the maximal effect.

A value given as a limit tells only on which side of the number the result lay.

As for `CCc1cccc2c3c([nH]c12)C(CC)(CC(=O)O)OCC3` (stereo not shown) [Etodolac, 1,8-diethyl-1,3,4,9-tetrahydropyrano [3,4-b] indole-1-acetic acid], the values for the EC50 in experiment [1] (setting [4]) and in experiment [2] (setting [4]) were 1000 µM and 800 µM, respectively. The “Effect on the PGE2 content increased by the anterior chamber puncture” value with Japanese white rabbits (aqueous humor, 0.5% and 5% in castor oil, FIG. 1) is given as “inhibited the increase”. Also, in the experiment on Japanese white rabbits (aqueous humor, 0.5% and 5% in castor oil, FIG. 2), the “Effect on the protein content increased by the anterior chamber puncture” value is given as “inhibited the increase”.

As for `COc1ccc2c(c1)c(CC(=O)O)c(C)n2C(=O)c1ccc(Cl)cc1` [Indometacin], the values for the EC50 in experiment [1] (setting [4]) and in experiment [2] (setting [4]) were 570 µM and 370 µM, respectively.

For `CS(=O)(=O)Nc1ccc([N+](=O)[O-])cc1OC1CCCCC1` [NS-398, N-(2-(cyclohexyloxy)-4-nitrophenyl) methanesulfonamide], the results for the “Inhibition Rate (PGE2 Content)” value in experiment [3] (0.5% in castor oil) and in experiment [3] (5.0% in castor oil) were 65.9% and 59.4%, respectively. Further, the “PGE2 Content” value in experiment [3] (aqueous humor 4 hours after LPS 1.25 μg/kg, 0.5% in castor oil, dropped one hour before LPS) is 4553 ± 118.6 pg/mL; in experiment [3] (aqueous humor 4 hours after LPS 1.25 μg/kg, 5.0% in castor oil, dropped one hour before LPS) it was 542.8 ± 79.8 pg/mL.

For `Cc1cnc(NC(=O)C2=C(O)c3ccccc3S(=O)(=O)N2C)s1` [Meloxicam, 4-hydroxy-2-methyl-N-(5-methyl-2-thiazolyl)-2H-1,2-benzo-thiazine-3-carboxamide 1,1-dioxide], the “Inhibition Rate (PGE2 Content)” value was 55.9% in experiment [3] (0.1% eye drop); 68.8% in experiment [3] (0.5% eye drop); 63.1% in experiment [3] (1.0% eye drop); 75.0% in the experiment on Japanese white rabbits (0.1% eye drop); 90.7% with Japanese white rabbits (0.5% eye drop); 94.2% in the experiment on Japanese white rabbits (1.0% eye drop). Further, the “Inhibition Rate (Protein Content)” value in experiment [3] (0.1% eye drop) was 33.8%; in experiment [3] (1.0% eye drop), 49.4%; in the experiment on Japanese white rabbits (0.1% eye drop), 29.3%; with Japanese white rabbits (0.5% eye drop), 52.2%; in the experiment on Japanese white rabbits (1.0% eye drop) it was 47.6%. The “PGE2 Content” value amounted to 1102.8 pg/mL in experiment [3] (setting [5]); 780.9 pg/mL in experiment [3] (setting [6]); 922.8 pg/mL in experiment [3] (setting [7]); 680.6 pg/mL with Japanese white rabbits (0.1% eye drop); 253.5 pg/mL with Japanese white rabbits (0.5% eye drop); 158.3 pg/mL in the experiment on Japanese white rabbits (1.0% eye drop). The “Protein Content” value in experiment [3] (setting [5]) is 16.0 ± 1.9 mg/mL; in experiment [3] (setting [6]) it was 14.3 ± 2.6 mg/mL; in experiment [3] (setting [7]), 12.2 ± 1.8 mg/mL; in the experiment with Japanese white rabbits (0.1% eye drop, about 60 μl both eyes) it was 16.2 ± 1.9 mg/mL; with Japanese white rabbits (0.5% eye drop) it was 11.0 ± 1.5 mg/mL; in the experiment on Japanese white rabbits (1.0% eye drop), 12.0 ± 2.1 mg/mL. Also, the EC50 in experiment [1] (setting [8]) is above 1000 µM; in experiment [1] (setting [9]), 840 µM; in experiment [2] (setting [8]) it was 970 µM; in experiment [2] (setting [9]), 380 µM.

Regarding `O=C(O)Cc1ccccc1Nc1c(Cl)cccc1Cl` [Diclofenac Sodium], the EC50 in experiment [1] (setting [4]) stood at 300 µM; in experiment [1] (setting [8]), 630 µM; in experiment [1] (setting [9]), 230 µM; in experiment [2] (setting [4]) it was 130 µM; in experiment [2] (setting [8]) it was 230 µM; in experiment [2] (setting [9]), 220 µM.

The record behind these values is patent publication US6495603B1, “Anti-inflammatory eye drop” (Wakamoto Pharmaceutical Co., Ltd., priority 1998, dated 2002).
